Results: patent US20190117586A1, “METHODS OF PREVENTING OR TREATING PARKINSON'S DISEASE BY THE FARNESYLATION OF PARIS” (The Johns Hopkins University, priority 2016, published 2019)

Assays:
PGC-1α = PGC-1α levels in SH-SY5Y cells by immunoblot; format: cell-based; details: FIG. 3H
Description: The 9 compounds that activate the PGC-1α promoter in the presence of PARIS were evaluated to determine which compounds induce PGC-1α levels in SH-SY5Y cells (FIGS. 2A and 2B). […] The mRNA level of PGC-1α target genes including copper/zinc superoxide dismutase (SOD1), manganese SOD (SOD2), glutathione peroxidase (GPx1), catalase (CAT), nuclear respiratory factor-1 (NRF-1), mitochondrial transcription factor A (TFAM), mitochondrial uncoupling proteins (UCP2 and UCP3), and the oxidative phosphorylation regulators, ATP5b, cytochrome C (CytC) and cytochrome C oxidase (COX II and IV) were determined by real-time quantitative RT-PCR (qRT-PCR) (FIG. 2C).
(§1) Geraniol or geranylgeraniol have no effect on PGC-1α levels (FIG. 3H).

FTase = FTase (Homo sapiens, UniProt P49354+P49356); experiment: In vitro farnesylation of recombinant GST-PARIS by FTase and FPP; format: biochemical
Description: Next, a biotechnological approach to confirm that PARIS is prenylated was applied (Nguyen et al., 2009). The total cell lysate of SH-SY5Y cells transfected with Flag-tagged PARIS was incubated with a biotin-functionalized geranyl pyrophosphate analogue (Biotin-GPP) and the recombinant FTase W102T/Y154T mutant, which was engineered to utilize Biotin-GPP as a lipid donor (Nguyen et al., 2009). […] In addition, the immunoprecipitate of Flag-tagged PARIS from SH-SY5Y cells transfected with either siRNA-control or siRNA-FTase α was mixed with NBD-GPP, a […] fluorescent analog of FPP for an in vitro farnesylation assay (IVF). […] To determine whether FTase directly farnesylates PARIS, recombinant GST-PARIS was incubated with FTase and FPP in the presence and absence of the FTase inhibitor, FTI-277. GST-PARIS undergoes farnesylation by FTase, which is abolished by the addition of FTase inhibitor, FTI-277 (FIG. 3E).
The in vitro farnesylation assay (IVF) was performed as described (Nguyen et al., 2009; Nguyen et al., 2010; Wu et al., 2007). Briefly, for metabolic global farnesylation, 5 μCi [^3H]-farnesyl pyrophosphate (FPP) (NET1042001MC, PerkinElmer) was treated into SH-SY5Y cells and immunoprecipitant was monitored by immunoblot analysis with Farnesyl antibody. […] For fluorescence-based IVF, immunoprecipitated Flag-tagged PARIS was incubated for 20 min with NBD-GPP (LI-014, Jena Bioscience). […]

PARIS = PARIS farnesylation in SH-SY5Y cells transfected with Flag-tagged PARIS (immunoprecipitation); format: cell-based; details: PARIS overexpression, farnesol
Description: as §1
To confirm that farnesylation of PARIS requires FTase, siRNA-FTase α knockdown or FTI-277 inhibition of FTase in the setting of PARIS overexpression was performed (FIG. 4C). […] To ascertain whether the farnesylation of PARIS affects the DNA binding activity of PARIS on the IRS motif of the PGC-1α promoter, a chromatin immunoprecipitation assay (ChIP) was performed from SH-SY5Y transfected with GFP-tagged PARIS WT or GFP-tagged PARIS C631S. […] To examine the possibility that the farnesylation of PARIS alters its subcellular distribution, subcellular fractionation was used to monitor the levels of PARIS in cytosolic, membrane, soluble nuclear, and chromatin-bound nuclear fractions by immunoblot analysis (FIG. 4F).

Row | SMILES | PGC-1α levels, specificity test with compounds of similar structure (PGC-1α) | farnesylation of GST-PARIS by FTase (FTase) | farnesylation of PARIS by farnesol under FTase inhibition (PARIS)
1 | CC(C)=CCC/C(C)=C/CO [Geraniol] | no effect | – | –
2 | COC(=O)[C@H](CCSC)NC(=O)c1ccc(NC[C@@H](N)CS)cc1-c1ccccc1 [FTI-277, reference compound] | – | abolished | strongly prevents farnesylation of PARIS by farnesol
3 | CC(C)=CCC/C(C)=C/CC/C(C)=C/CC/C(C)=C/CO [geranylgeraniol] | no effect | – | –
